The subject of experiment [1] is MRSA. The experiment in a line: MIC in CAMHB, 96-well plate (10^5 to 10^2 CFU/mL in 24 hours). Format: cell-based, methicillin-resistant Staphylococcus aureus. The settings on record: Staphylococcus aureus, MRSA, Table 5, class symbols. The method, then: (§1) To determine the MIC of polyamine compounds, the protocol described herein was used.
In brief, a 0.5 McFarland of each bacterial isolate was made. A 0.5 McFarland is a measure of turbidity in a liquid sample that contains approximately 1×10̂^8 CFU/mL. The 0.5 McFarland standard was diluted in cation adjusted Mueller Hinton Broth (CAMHB), and […], of broth were added to a well of a 96-well plate. In addition, 50 μL of CAMHB that contained a desired concentration of antimicrobial were also added to the well for a final volume of 100 and a final concentration of approximately 5×10^4 CFU/well (which equated to approximately 5×10^5 CFU/mL). Each well contained a desired amount of polyamine compound in order to experimentally determine the MIC. Each 96-well plate was incubated at 37° C. for 24 hours. The contents of each well were plated on tryptic soy agar (TSA). TSA plates were incubated for 37° C. for 24 hours after which the number of CFU were counted and used to calculate the CFU/mL that remained after exposure to varying concentrations of compound. This procedure was repeated n=8 times for each concentration of antimicrobial. […]

Another experiment has as its system P. aeruginosa. The description is as above. Format: cell-based. The conditions noted are these: Pseudomonas aeruginosa, Table 5, class symbols. The method, then:
as §1
In brief, a 0.5 McFarland of each bacterial isolate was made. A 0.5 McFarland is a measure of turbidity in a liquid sample that contains approximately 1×10̂^8 CFU/mL. The 0.5 McFarland standard was diluted in cation adjusted Mueller Hinton Broth (CAMHB), and […], of broth were added to a well of a 96-well plate. In addition, 50 μL of CAMHB that contained a desired concentration of antimicrobial were also added to the well for a final volume of 100 and a final concentration of approximately 5×10^4 CFU/well (which equated to approximately 5×10^5 CFU/mL). Each well contained a desired amount of polyamine compound in order to experimentally determine the MIC. Each 96-well plate was incubated at 37° C. for 24 hours. The contents of each well were plated on tryptic soy agar (TSA). TSA plates were incubated for 37° C. for 24 hours after which the number of CFU were counted and used to calculate the CFU/mL that remained after exposure to varying concentrations of compound. This procedure was repeated n=8 times for each concentration of antimicrobial.

The test system of experiment [2] is MRSA. Briefly: MIC against MRSA as defined by CLSI (FIG. 25 series). It counts as cell-based, methicillin-resistant Staphylococcus aureus. The settings on record: Staphylococcus aureus. The procedure:
To determine the MIC of the polyamine chains alone and the synthesized compounds against MRSA and P. aeruginosa ATCC 27853, a modified protocol from the Clinical and Laboratory Standards Institute (CLSI) guideline M26-A was used. […] All data was collected using cation adjusted MHB for standardization.
As mentioned, MRSA and P. aeruginosa ATCC 27853 were grown on Columbia blood agar plates prior to experimentation. From the blood agar plates, a 0.5 McFarland standard was made of each isolate. This equated to approximately 5×10^7 cells/mL for the MRSA isolate and approximately 3×10^7 cells/mL for the P. aeruginosa ATCC 27853 isolate. Of the 0.5 McFarland stock solution, 50 μL were added to MHB. […] All tests were performed such that a final volume of 5 mL of MHB were obtained. This provided a final bacterial concentration of approximately 5×10^5 cells/mL.
Each sample was incubated in glass test tubes at 37° C. for 24 hours, then plated in duplicate on tryptic soy agar (TSA) using a 10-fold dilution series. TSA plates were further incubated 24 hours at 37° C. The number of colony forming units (CFU) that grew were counted in order to calculate the number of bacteria that were present per mL in the original MHB solution.

Experiment [3] has as its system biofilms of MRSA and P. aeruginosa. The conditions noted are these: understanding of the inventors, no own test described; cited from earlier work.
For another experiment, the system named is biofilm formation. The settings on record: Kolodkin-Gal et al., Cell 149 (2012), cited from earlier work.

SMILES strings stand for the structures. ≈ marks a conversion by molar mass, not a printed value.

As usually defined, the MIC is the smallest concentration in the dilution series that meets the test's criterion for growth inhibition. Low values mean inhibition by little substance, high ones a need for much substance.

`NCCCCNCc1ccccc1` [CZ-3] showed an MIC in the experiment with MRSA [1] of more than 100 µM.
Same read-out and setting: with `CN(C)CCCNCCCNCc1ccccc1` [CZ-6] the figure was more than 100 µM.
As to `NCCCNCc1cccc(CNCCCN)c1` [CZ-12], the minimal inhibitory concentration (MIC) in the experiment on P. aeruginosa is more than 100 µM.
Take `NCCCNCCCNCCCNCc1ccccc1` [CZ-16]: the MIC in the experiment on MRSA [1] is more than 100 µM.
In the experiment on MRSA [1], `Cc1cc(C)c(CNCCCN)c(C)c1CNCCCN` [CZ-19] showed an MIC of more than 100 µM.
The same measure, in the same setting: with `NCCCNCCCNCc1cccc(CO)c1` [CZ-22] the figure was 50 to 100 µM (≈ 12.6 to 25.1 µg/mL).
Take `NCCCCCCNCc1cccc(CNCCCCCCN)c1` [CZ-26]: the MIC is 50 to 100 µM (≈ 16.7 to 33.5 µg/mL) in the experiment with MRSA [1] and more than 100 µM in the experiment on P. aeruginosa.
Turning to `NCCCNCc1cc(CNCCCN)cc(CNCCCN)c1` [CZ-32], the MIC with MRSA [1] was 50 to 100 µM (≈ 16.8 to 33.7 µg/mL); in the experiment on MRSA [2], 45 µg/mL (≈ 134 µM); against P. aeruginosa, 50 to 100 µM (≈ 16.8 to 33.7 µg/mL).
With `NCCCCCCNCc1cc(CNCCCCCCN)cc(CNCCCCCCN)c1` [CZ-33], the results for the MIC in the experiment on MRSA [1] and in the experiment on P. aeruginosa were 50 to 100 µM (≈ 23.1 to 46.3 µg/mL) and more than 100 µM, respectively.
Compound `NCCCNC(=O)c1cccc(C(=O)NCCCN)c1` [CZ-40] had an MIC against P. aeruginosa of more than 100 µM.
With `CN(C)CCCNCCCNCc1cccc(CNCCCNCCCN(C)C)c1` [CZ-43], the minimum inhibitory concentration (MIC) against MRSA [1] and in the experiment on P. aeruginosa was more than 100 µM each time.
As to `NCCCNCCCNCc1cc(CO)cc(CNCCCNCCCN)c1` [CZ-53], the MIC against MRSA [1] was less than 50 µM; in the experiment with P. aeruginosa, 50 to 100 µM (≈ 19.7 to 39.5 µg/mL).
Take `CC(C)(C)OC(=O)NCCCNCCCNCc1cc(CNCCCNCCCN)cc(CNCCCNCCCNC(=O)OC(C)(C)C)c1` [CZ-54]: the minimum inhibitory concentration (MIC) in the experiment on MRSA [1] and in the experiment with P. aeruginosa was less than 50 µM each time.
For `NCCCNCCCNCCCNCc1cccc(CNCCCNCCCNCCCN)c1` [CZ-57], the minimal inhibitory concentration (MIC) is less than 50 µM in the experiment on MRSA [1] and more than 100 µM against P. aeruginosa.
The corresponding values for `NCCCNCCCNCc1cc(CNCCCNCCCN)cc(-c2ccc3c(c2)OCO3)c1` [CZ-61] are less than 50 µM and less than 50 µM.
`NCCCNCCCNCc1cccc(-c2cc(CNCCCNCCCN)cc(CNCCCNCCCN)c2)c1` [CZ-62]: the MIC in the experiment with MRSA [1] and against P. aeruginosa was less than 50 µM each time.
Take `Cc1ccccc1-c1cc(CNCCCNCCCN)cc(CNCCCNCCCN)c1` [CZ-63]: the MIC against MRSA [1] and against P. aeruginosa was less than 50 µM each time.
As to `NCCCNCCCNCc1ccc(-c2cc(CNCCCNCCCN)cc(CNCCCNCCCN)c2)cc1` [CZ-65], the MIC in the experiment on MRSA [1] and with P. aeruginosa was less than 50 µM each time.
`CC(C)Oc1ccc(-c2cc(CNCCCNCCCN)cc(CNCCCNCCCN)c2)cc1CNCCCNCCCN` [CZ-66]: the MIC against MRSA [1] and against P. aeruginosa was less than 50 µM in each case.
Turning to `NCCCNCCCNCc1cc(CNCCCNCCCN)cc(-c2ccc(OC(F)(F)F)c(CNCCCNCCCN)c2)c1` [CZ-69], the MIC against MRSA [1] and against P. aeruginosa was less than 50 µM in each case.
Take `NCCCNCCCNCc1cc(CNCCCNCCCN)cc(-c2ccncc2)c1` [CZ-71]: the results for the MIC in the experiment on MRSA [1] and in the experiment with P. aeruginosa were less than 50 µM and more than 100 µM, respectively.
The corresponding values for `COc1ccc(-c2cc(CNCCCNCCCN)cc(CNCCCNCCCN)c2)cn1` [CZ-72] are less than 50 µM and less than 50 µM.
On the same counts, the results for `NCCCNCCCNCCCNCc1cc(CNCCCNCCCNCCCN)cc(-c2ccccc2)c1` [CZ-73] are less than 50 µM and less than 50 µM.
As for `N=C(NCCCCCCNC(=N)NC(=N)Nc1ccc(Cl)cc1)NC(=N)Nc1ccc(Cl)cc1.O=C(O)[C@H](O)[C@@H](O)[C@H](O)[C@H](O)CO.O=C(O)[C@H](O)[C@@H](O)[C@H](O)[C@H](O)CO` [chlorhexidine gluconate], the “biofilm dispersal effect (comparison antimicrobials)” value in experiment [3] is “not seen”.
Turning to `O=CCCCC=O` [glutaraldehyde], the “biofilm dispersal effect (comparison antimicrobials)” value in experiment [3] is recorded as “not seen”.
`NCCCNCCCN` [norspermidine, N-(3-aminopropyl)propane-1,3-diamine]: in the experiment on biofilm formation, the “concentration at which biofilm formation is inhibited” value was 25 µM.
With `NCCCCNCCCN` [spermidine], in the experiment on biofilm formation (only active at much higher concentrations), the “concentration at which active” value is listed as approximately 1 mM.

Values taken from patent US20150274639A1, “METHODS OF USE FOR COMPOSITIONS COMPRISING A BIOCIDAL POLYAMINE” (Curza Global, LLC, priority 2013, published 2015).
